Results filed as inconclusive are left out. The source made the active and inactive calls. The rule behind the calls is not given here.

This data set relates to S. typhimurium/E. coli reverse mutation, colony counts. The data set is described as follows: Bacterial reverse mutation test (aka Ames test) summary data. In outline:
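Revertant colony counts on plates, compared with untreated controls, after about two days of growth. Exposure with or without liver S9 (rat/hamster/mouse), dose range per strain, 20-min 37° C preincubation or direct plate incorporation. Strains: his⁻ Salmonella, trp⁻ E. coli WP2 uvrA pKM101.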
As for `Nc1cc([N+](=O)[O-])cc(S(=O)(=O)O)c1O`, the outcome is “inactive; negative”.

For `COc1ccc(C)cc1N`, the outcome is “active; positive”.

For `CCCCOC(=O)c1ccc(N)cc1`, the outcome was “inactive; negative”.

Take `Clc1ccc(Cl)c(Cl)c1`: the outcome is “inactive; negative”.

Regarding `NC(=O)CCCCC(N)=O`, the outcome was “inactive; negative”.

In the case of `COC(F)(F)C(Cl)Cl`, the outcome is “inactive; negative”.

Regarding `Nc1ccc(Br)cc1`, the outcome is “inactive; negative”.

`ClC(Cl)Cl`: the outcome was “inactive; negative”.

As to `CCCCCCCCCCCC(=O)[O][Sn]([CH2]CCC)([CH2]CCC)[O]C(=O)CCCCCCCCCCC`, the outcome was “inactive; negative”.

Turning to `FC(F)(F)c1ccc(Cl)cc1`, the outcome was “inactive; negative”.

Take `CCCN(CCC)C(=O)SCC`: the outcome is “inactive; negative”.

As for `C=CC1CC=CCC1` (centres undefined), the outcome was “inactive; negative”.

As to `Oc1cc(Cl)c(Cl)cc1Cl`, the outcome is “inactive; negative”.

As to `CCCCCCCCC`, the outcome is “inactive; negative”.

For the molecule `C=O`, the outcome is “active; positive”.

In the case of `CC1CCC2CC1C2(C)C` (centres undefined), the outcome was “inactive; negative”.

On to `COc1ccc(C(=O)/C(Br)=C\C(=O)O)cc1`, for which the outcome is “active; positive”.

Turning to `CC(=O)Nc1ccc(C)cc1`, the outcome was “active; weakly positive”.

Consider `C1COCOC1`, for which the outcome is “active; weakly positive”.

For `CCNc1cc(O)ccc1C`, the outcome is “active; positive”.

As to `CC(C)NC(C)C`, the outcome is “inactive; negative”.

Consider `CC(=O)c1ccccn1`, for which the outcome was “inactive; negative”.

On to `COc1ccc(Cc2nccc3cc(OC)c(OC)cc23)cc1OC`, for which the outcome was “inactive; negative”.

In the case of `O=C(O)/C=C/C(=O)O`, the outcome was “inactive; negative”.

On to `CC(Cl)CCl` (centres undefined), for which the outcome is “active; weakly positive”.

`CC1(C)[C@@H]2CC[C@@]1(C)C(=O)C2`: the outcome is “inactive; negative”.

As for `CNC(C)Cc1ccccc1` (centres undefined), the outcome was “inactive; negative”.

`C=CCNC(=S)NCC=C`: the outcome is “inactive; negative”.

With `O=C(O)C(Cl)(Cl)Br`, the outcome is “active; positive”.

In the case of `OCC(O)CCl` (centres undefined), the outcome was “active; positive”.

With `CC(C)(COCC1CO1)COCC1CO1` (centres undefined), the outcome is “active; positive”.

As to `CC1CCC(C(C)CS)CC1S` (centres undefined), the outcome is “inactive; negative”.

On to `CC(=O)Nc1ccc(N)cc1`, for which the outcome is “active; positive”.

As for `ClCBr`, the outcome is “active; positive”.

Consider `CCCCCCCCCCCCCCCCCCCCCCCCCCCCO`, for which the outcome is “inactive; negative”.

Regarding `[Cd+2].[Cl-].[Cl-]`, the outcome is “inactive; negative”.

Regarding `CCCCOB(OCCCC)OCCCC`, the outcome is “inactive; negative”.

`Cc1cccc([N+](=O)[O-])c1N`: the outcome is “active; positive”.

As to `Cc1ccnc2c1NC(=O)c1cccnc1N2C1CC1`, the outcome is “inactive; negative”.

As for `CC(=O)OCCC(C)C`, the outcome was “inactive; negative”.

On to `O=C1OC(=O)c2c(Br)c(Br)c(Br)c(Br)c21`, for which the outcome is “inactive; negative”.

For the molecule `O=C(O)c1cc(Cl)ccc1Cl`, the outcome is “inactive; negative”.

For `C=C(F)F`, the outcome was “active; positive”.

Take `CC/C=C\C/C=C\C/C=C\CCCCCCCC(=O)O`: the outcome was “active; weakly positive”.

Take `CC(C)CON=O`: the outcome is “active; positive”.

Turning to `COc1ccc(OC)cc1`, the outcome was “inactive; negative”.

Turning to `CCOc1ccc(NC(C)=O)cc1[N+](=O)[O-]`, the outcome is “active; positive”.

Turning to `CCCCCN`, the outcome was “inactive; negative”.

Consider `CCOP(=S)(OCC)OP(=S)(OCC)OCC`, for which the outcome was “active; positive”.

The record behind these values is PubChem BioAssay AID2202554 (NIEHS Division of Translational Toxicology (DTT)).
